Assay results published in patent USRE35517E, “Method, compositions, and compounds for modulating brain excitability” (priority 1992, dated 1997).
Where two headings read alike, the source gives them in different places.

Legend:
[1] = test system: strychnine; design: key to ED50 STR (strychnine): NP: no protection; details: mice, cited from earlier work
[2] = test system: maximal electroshock; design: unit not given here; details: mice, cited from earlier work
[3] = test system: rotorod performance; design: unit not given beside the values; details: mice; data from Swinyard & Woodhead 1982; cited from earlier work
[4] = test system: picrotoxin; design: key: NP: no protection; details: mice, cited from earlier work
[5] = test system: metrazol; design: key: NP: no protection; details: mice, cited from earlier work
[6] = test system: (+)bicuculline-induced seizures; design: key: NP: no protection; details: mice, cited from earlier work
[7] = test system: GABA/benzodiazepine receptor-chloride ionopore complex (GBR complex); test: Dissociation kinetics of [35S]TBPS in rat cerebral cortical membranes; format: binding; details: for biphasic dissociation mechanism of [35S]TBPS: FIGS. 2A, 2B, pentobarbital 30 micromolar, alphaxalone 300 nanomolar, 5-alpha-pregnan-3-alpha-hydroxy-20-one 20 nanomolar; for t1/2, R (rapidly dissociating component) / t1/2, S (slowly dissociating component): 30 nM Na pentobarbital; for Total percentage of specific sites, R: rapidly dissociating component, Na pentobarbital (**P < 0.01 vs control); for Total percentage of specific sites, S: slowly dissociating component, Na pentobarbital (*P < 0.05 vs control)
Method: An assay was performed to determine the effect of pentobarbital on the dissociation kinetics of [^35 S]TBPS in rat cerebral cortical membranes. This assay was performed in accordance with the procedures outlined above. […] Dissociation of bound [^35 ]TBPS was initiated by 2 micromolar TBPS in all cases.

[8] = test system: BZ receptor; test: Modulation of [3H]flunitrazepam binding in rat hippocampal homogenates, with pentobarbital (FIG. 3); details: 1.0 millimolar pentobarbital, 0.25 nM [3H]FLU, absence of GABA
[9] = test system: rotorod performance; test: Rotorod test (sedative potential); design: ED50 RR (rotorod): unit not given beside the values; details: mice
[10] = Acute lethality (LD50); details: mice; from therapeutic index
[11] = test system: convulsions; test: Anticonvulsant screen (chemical convulsants and maximal electroshock), overall; format: in vivo, mice; details: in comparison to clinically useful anticonvulsants, benzodiazepines
Method: Experiments were also performed to determine the physiological relevance of these interactions by measuring the ability of the compounds of and used in the invention to modulate TBPS-induced convulsions in Swiss-Webster mice. […] The time to onset of myoclonus (presence of forelimb clonic activity) induced by TBPS was determined by observing each mouse of a period of 45 minutes. Significant differences between the time to onset in control mice vs. steroid-treated mice were determined by Student's t-test. […] The number of animals with tonic and/or clonic convulsions was recorded. In the maximal electroshock test, 50 mA of current at 60 Hz was delivered through corneal electrodes for 200 msec. […] The ED50 (the dose at which the half-maximal effect occurs) dose was determined for each screen.

[12] = test system: GABA/benzodiazepine receptor-chloride ionopore complex (GBR complex); test: Modulation of [35S]TBPS binding in rat cerebral cortex P2 homogenate; design: species or system rat (male Sprague-Dawley); details: for +5 μM IC50: inhibition of 2 nM [35S]TBPS binding, +5 μM (GABA); for +5 μM IC50 / CONTROL IC50: 25° C., 90 minutes; for CONTROL IC50: inhibition of basal 2 nM [35S]TBPS binding
Method: These procedures were performed as follows:

[13] = test system: premenstrual syndrome, PND, catamenial epilepsy; details: patients, cited from earlier work
[14] = data from Swinyard & Woodhead 1982, NP = no protection
[15] = data from Swinyard & Woodhead 1982
[16] = [35S]TBPS dissociation, rat cortex, 300 nM alphaxalone, 20 nM a-OH-DHP
[17] = [35S]TBPS dissociation, rat cortex, Na pentobarbital, 300 nM alphaxalone, 20 nM a-OH-DHP
[18] = 300 nM alphaxalone, 20 nM a-OH-DHP
[19] = convulsant administered i.v., data from Worms et al. 1982

Structure (SMILES): CCC1(c2ccccc2)C(=O)NC(=O)NC1=O [Phenobarbital]
- ED50 STR (strychnine) [1, 14]: 95
- ED50 MES (maximal electroshock) [2, 15]: 22
- ED50 RR (rotorod) [3]: 69
- ED50 PICRO (picrotoxin) [4, 14]: 28
- ED50 MTZ (metrazol) [5, 14]: 13
- ED50 BIC (bicuculline) [6, 14]: 38

Structure (SMILES): CC(=O)[C@H]1CC[C@H]2[C@@H]3CC[C@H]4C[C@H](O)CC[C@]4(C)[C@H]3CC[C@]12C [3α-OH-DHP, 3α-hydroxy-5α-pregnan-20-one]
- biphasic dissociation mechanism of [35S]TBPS [7]: absent
- t1/2, R (rapidly dissociating component) [7, 16]: 6.4 ± 1
- t1/2, S (slowly dissociating component) [7, 16]: 76 ± 11
- k-1, S (slowly dissociating component) [7, 17]: 0.011 ± 0.002 min⁻¹
- Total percentage of specific sites, R [7, 18]: 35 ± 3%
- influence on the dissociation kinetics of [35S]TBPS binding ([7]; rat cerebral cortex): do not influence the dissociation kinetics
- Total percentage of specific sites, S [7, 18]: 68 ± 3%
- interaction with pentobarbital in the enhancement of [3H]flunitrazepam binding [8]: does not interact with pentobarbital
- ED50 RR (rotorod) ([9]; 10 minutes after injection): 40-100
- sedative liability at anticonvulsant doses ([9]; rotorod ED50 compared with (+)bicuculline ED50): low
- toxicity, in words [10]: very low toxicity
- anticonvulsant activity / profile [11]: highly effective with a profile similar to that of the benzodiazepine clonazepam

Structure (SMILES): CCCC(C)C1(CC)C(=O)NC(=O)NC1=O (stereo not shown) [Pentobarbital]
- biphasic dissociation mechanism of [35S]TBPS [7]: induces a biphasic dissociation mechanism
- t1/2, R (rapidly dissociating component) [7, 16]: 4.4 ± 0.3
- t1/2, S (slowly dissociating component) [7, 16]: 38 ± 3
- k-1, R (rapidly dissociating component) [7, 17]: 0.158 ± 0.013 min⁻¹
- k-1, S (slowly dissociating component) [7, 17]: 0.0186 ± 0.0015 min⁻¹
- Total percentage of specific sites, R [7, 18]: 48 ± 6%
- Total percentage of specific sites, S [7, 18]: 61 ± 6%

Structure (SMILES): C[C@]12CC[C@@H]3c4ccc(O)cc4CC[C@H]3[C@@H]1CC[C@@H]2O [17β-ESTRADIOL]
- +5 μM IC50 [12]: INACTIVE
- CONTROL IC50 [12]: INACTIVE

Structure (SMILES): O=C1CN=C(c2ccccc2Cl)c2cc([N+](=O)[O-])ccc2N1 [Clonazepam]
- ED50 STR (strychnine) [1, 14]: NP
- ED50 MES (maximal electroshock) [2, 15]: 93
- ED50 RR (rotorod) [3]: 0.184
- ED50 PICRO (picrotoxin) [4, 14]: 0.043
- ED50 MTZ (metrazol) [5, 14]: 0.009
- ED50 BIC (bicuculline) [6, 14]: 0.0086

Structure (SMILES): CC(C)CCC[C@@H](C)[C@H]1CC[C@H]2[C@@H]3CC=C4C[C@@H](O)CC[C@]4(C)[C@H]3CC[C@]12C [CHOLESTEROL]
- +5 μM IC50 [12]: INACTIVE
- CONTROL IC50 [12]: INACTIVE

Structure (SMILES): CC(=O)[C@H]1CC[C@H]2[C@@H]3CC=C4C[C@@H](O)CC[C@]4(C)[C@H]3CC[C@]12C [PREGNENOLONE, 5α-PREGNEN-3β-OL- 20-ONE]
- CONTROL IC50 [12]: INACTIVE

Structure (SMILES): NC(=O)CCC/N=C(\c1ccc(Cl)cc1)c1cc(F)ccc1O [Progabide]
- ED50 STR (strychnine) [1, 19]: 75
- ED50 MES (maximal electroshock) ([2]; data from Worms et al. 1982): 75
- ED50 PICRO (picrotoxin) [4, 19]: 105
- ED50 MTZ (metrazol) [5, 19]: 30
- ED50 BIC (bicuculline) [6, 19]: 30

Structure (SMILES): O=C1NC(=O)C(c2ccccc2)(c2ccccc2)N1 [Phenytoin]
- Maximum protection (strychnine) ([1]; at 55-100 mg/kg, data from Swinyard & Woodhead 1982): 50%
- ED50 PICRO (picrotoxin) [4, 14]: NP
- ED50 MTZ (metrazol) [5, 14]: NP
- ED50 BIC (bicuculline) [6, 14]: NP

Structure (SMILES): CC(=O)[C@H]1CC[C@H]2[C@@H]3CCC4=CC(=O)CC[C@]4(C)[C@H]3CC[C@]12C [PROGESTERONE]
- effectiveness in the treatment of PMS, PND and catamenial epilepsy ([13]; literature): not consistently effective
- dose-response relationship in the treatment of PMS ([13]; Maddocks et al., Dennerstein et al. 1986): no dose-response relationship exists
- potency (and efficacy) at the GBR complex ([12]; in vitro, [35S]TBPS binding): very low potency

Structure (SMILES): C[C@]12C[C@H](O)[C@H]3[C@@H](CCC4=CC(=O)CC[C@@]43C)[C@@H]1CC[C@@H]2C(=O)CO [CORTICOSTERONE, 4-PREGNEN-11β,21- DIOL-3,20-DIONE]
- CONTROL IC50 [12]: INACTIVE

Structure (SMILES): CC(=O)[C@H]1CC[C@H]2[C@@H]3CC[C@H]4C[C@@H](O)CC[C@]4(C)[C@H]3CC[C@]12C [ALLOPREGNANLONE, 5α-PREGNAN-3β-OL- 20-ONE]
- CONTROL IC50 [12]: INACTIVE

Structure (SMILES): CCCC(CCC)C(=O)O [Valproate]
- ED50 STR (strychnine) [1, 14]: 293
- ED50 MES (maximal electroshock) [2, 15]: 272
- ED50 PICRO (picrotoxin) [4, 14]: 387
- ED50 MTZ (metrazol) [5, 14]: 149
- ED50 BIC (bicuculline) [6, 14]: 360
